{"source": "ChEMBL document CHEMBL5113483", "about": "“Design and synthesis of NAD(P)H: Quinone oxidoreductase (NQO1)-activated prodrugs of 23-hydroxybetulinic acid with enhanced antitumor properties” (Eur J Med Chem, 2022)", "key": {"[1]": {"tested_on": "HT-29", "test": "Induction of apoptosis in human HT-29 cells assessed as late apoptotic cells at 2 uM incubated for 48 hrs by Annexin V-FITC/PI staining based flow cytometry analysis (Rvb= 1.04%)", "type": "functional"}, "[2]": {"biological_target": "NAD(P)H dehydrogenase [quinone] 1 (Homo sapiens) (UniProt P15559)", "sequence (P15559 whole entry)": "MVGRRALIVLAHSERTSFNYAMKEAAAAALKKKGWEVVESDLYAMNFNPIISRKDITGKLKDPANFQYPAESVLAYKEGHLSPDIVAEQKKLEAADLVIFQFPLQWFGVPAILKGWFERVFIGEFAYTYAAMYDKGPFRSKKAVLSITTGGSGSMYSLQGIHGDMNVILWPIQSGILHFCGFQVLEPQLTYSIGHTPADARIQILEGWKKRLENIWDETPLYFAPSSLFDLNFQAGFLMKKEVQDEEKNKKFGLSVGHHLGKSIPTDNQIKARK", "test": "Substrate activity at lyophilized human NQO1 assessed as compound decomposition measured after 60 hrs by HPLC analysis"}, "[3]": {"tested_on": "HT-29", "test": "Induction of cell cycle arrest in human HT-29 cells assessed as accumulation of cells at S phase at 4 uM incubated for 48 hrs by RNaeA/propidium iodide based flow cytometry analysis (reference value: 23.06 %)", "type": "functional"}, "[4]": {"tested_on": "HT-29", "test": "Induction of apoptosis in human HT-29 cells assessed as downregulation of Bcl-xl protein expression incubated for 48 hrs by Western blot analysis", "type": "functional, cell-based", "details": "dose 1-4 µM, DDE = dose-dependent effect"}, "[5]": {"tested_on": "HT-29", "test": "Induction of mitochondrial membrane potential loss in human HT-29 cells assessed as healthy cells at 2 uM incubated for 48 hrs by JC-1 staining based flow cytometry analysis (reference value: 93.4 %)", "type": "functional"}, "[6]": {"tested_on": "HT-29", "test": "Antiproliferative activity against human HT-29 cells overexpressing NQO1 assessed as inhibition of cell growth incubated for 72 hrs by MTT assay", "type": "functional, cell-based", "details": "HT-29, 72 h"}, "[7]": {"test": "Stability of compound in TRIS buffer at pH 7.4 assessed as compound remaining measured after 60 hrs by HPLC analysis", "type": "physicochemical", "details": "read-out: Stability"}, "[8]": {"tested_on": "HT-29", "test": "Induction of apoptosis in human HT-29 cells assessed as upregulation of Bax protein expression incubated for 48 hrs by Western blot analysis", "type": "functional, cell-based", "details": "dose 1-4 µM, DDE = dose-dependent effect"}, "[9]": {"tested_on": "HT-29", "test": "Induction of apoptosis in human HT-29 cells assessed as dead cells at 2 uM incubated for 48 hrs by Annexin V-FITC/PI staining based flow cytometry analysis (Rvb= 0.01%)", "type": "functional"}, "[10]": {"tested_on": "HT-29", "test": "Induction of oxidative stress in human HT-29 cells assessed as increase in intracellular ROS generation incubated for 48 hrs by DCF-DA fluorescent probe based flow cytometry analysis", "type": "functional, cell-based", "details": "dose 1-4 µM, DDE = dose-dependent effect"}, "[11]": {"tested_on": "HT-29", "test": "Induction of cell cycle arrest in human HT-29 cells assessed as accumulation of cells at G2 phase at 1 uM incubated for 48 hrs by RNaeA/propidium iodide based flow cytometry analysis (reference value: 13.96 %)", "type": "functional"}, "[12]": {"test": "Toxicity in […] xenografted with human HT-29 cells overexpressing NQO-1 assessed as reduction in body weight at 30 mg/kg, ip administered for 21 days and measured every 2 days", "type": "organism-based", "details": "in vivo, 504 h, time 21 day"}, "[13]": {"tested_on": "HT-29", "test": "Antiproliferative activity against human HT-29 cells overexpressing NQO1 assessed as inhibition of cell growth preincubated with NQO1 inhibitor, dicoumarol for 30 mins followed by compound addition and measured after 72 hrs by MTT assay", "type": "functional, cell-based"}, "[14]": {"test": "Selectivity index, ratio of IC50 for antiproliferative activity against NQO1-deficient human NCI-H596 cells to IC50 for antiproliferative activity against human HT-29 cells overexpressing NQO1", "type": "functional"}, "[15]": {"tested_on": "HT-29", "test": "Induction of apoptosis in human HT-29 cells assessed as dead cells at 1 uM incubated for 48 hrs by Annexin V-FITC/PI staining based flow cytometry analysis (Rvb= 0.01%)", "type": "functional"}, "[16]": {"test": "Selectivity index, ratio of IC50 for cytotoxicity against human HFL1 cells to IC50 for antiproliferative activity against human HT-29 cells overexpressing NQO1", "type": "toxicity, cell-based", "details": "HFL1 cells versus HT-29 cells overexpressing NQO1, read-out: Ratio IC50"}, "[17]": {"tested_on": "HT-29", "test": "Induction of mitochondrial membrane potential loss in human HT-29 cells assessed as healthy cells at 1 uM incubated for 48 hrs by JC-1 staining based flow cytometry analysis (reference value: 93.4 %)", "type": "functional"}, "[18]": {"tested_on": "HT-29", "test": "Induction of mitochondrial membrane potential loss in human HT-29 cells assessed as JC-1 monomer formation by measuring increase in green intensity at 4 uM incubated for 48 hrs by JC-1 staining based flow cytometry analysis (reference value: 6.54 %)", "type": "functional"}, "[19]": {"tested_on": "HT-29", "test": "Induction of cell cycle arrest in human HT-29 cells assessed as accumulation of cells at G1 phase at 1 uM incubated for 48 hrs by RNaeA/propidium iodide based flow cytometry analysis (reference value: 62.98 %)", "type": "functional"}, "[20]": {"tested_on": "NCI-H596", "test": "Antiproliferative activity against NQO1-deficient human NCI-H596 cells assessed as inhibition of cell growth incubated for 72 hrs by MTT assay", "type": "functional, cell-based", "details": "NCI-H596, 72 h"}, "[21]": {"tested_on": "HT-29", "test": "Induction of cell cycle arrest in human HT-29 cells assessed as accumulation of cells at G2 phase at 2 uM incubated for 48 hrs by RNaeA/propidium iodide based flow cytometry analysis (reference value: 13.96 %)", "type": "functional"}, "[22]": {"tested_on": "HT-29", "test": "Induction of cell cycle arrest in human HT-29 cells assessed as accumulation of cells at S phase at 2 uM incubated for 48 hrs by RNaeA/propidium iodide based flow cytometry analysis (reference value: 23.06 %)", "type": "functional"}, "[23]": {"tested_on": "HT-29", "test": "Antitumor activity against human HT-29 cells overexpressing NQO-1 xenografted in ICR mouse assessed as reduction in tumor weight at 30 mg/kg, ip administered every day for 21 days and measured every 2 days relative to control", "type": "functional", "parameters": "scale not given: the % may be the effect or the level left", "details": "time 21 day"}, "[24]": {"tested_on": "HT-29", "test": "Antitumor activity against human HT-29 cells overexpressing NQO-1 xenografted in ICR mouse assessed as reduction in tumor weight at 15 mg/kg, ip administered every day for 21 days and measured every 2 days relative to control", "type": "functional", "parameters": "scale not given: the % may be the effect or the level left", "details": "time 21 day"}, "[25]": {"tested_on": "HT-29", "test": "Induction of apoptosis in human HT-29 cells assessed as late apoptotic cells at 1 uM incubated for 48 hrs by Annexin V-FITC/PI staining based flow cytometry analysis (Rvb= 1.04%)", "type": "functional"}, "[26]": {"tested_on": "HT-29", "test": "Induction of apoptosis in human HT-29 cells assessed as viable cells at 2 uM incubated for 48 hrs by Annexin V-FITC/PI staining based flow cytometry analysis (Rvb= 96.54%)", "type": "functional", "details": "read-out: Activity"}, "[27]": {"tested_on": "HT-29", "test": "Induction of apoptosis in human HT-29 cells assessed as early apoptotic cells at 1 uM incubated for 48 hrs by Annexin V-FITC/PI staining based flow cytometry analysis (Rvb= 2.41%)", "type": "functional"}, "[28]": {"tested_on": "HT-29", "test": "Induction of apoptosis in human HT-29 cells assessed as upregulation of cytochrome C protein expression incubated for 48 hrs by Western blot analysis", "type": "functional, cell-based", "details": "dose 1-4 µM, DDE = dose-dependent effect"}, "[29]": {"tested_on": "HT-29", "test": "Induction of cell cycle arrest in human HT-29 cells assessed as accumulation of cells at S phase at 1 uM incubated for 48 hrs by RNaeA/propidium iodide based flow cytometry analysis (reference value: 23.06 %)", "type": "functional"}, "[30]": {"tested_on": "A549", "test": "Antiproliferative activity against human A549 cells overexpressing NQO1 assessed as inhibition of cell growth incubated for 72 hrs by MTT assay", "type": "functional, cell-based", "details": "A549, 72 h"}, "[31]": {"tested_on": "HT-29", "test": "Induction of apoptosis in human HT-29 cells assessed as early apoptotic cells at 2 uM incubated for 48 hrs by Annexin V-FITC/PI staining based flow cytometry analysis (Rvb= 2.41%)", "type": "functional"}, "[32]": {"test": "Cytotoxicity against human HFL1 cells assessed as inhibition of cell growth incubated for 72 hrs by MTT assay", "type": "toxicity, cell-based"}, "[33]": {"tested_on": "HT-29", "test": "Induction of mitochondrial membrane potential loss in human HT-29 cells assessed as JC-1 monomer formation by measuring increase in green intensity at 1 uM incubated for 48 hrs by JC-1 staining based flow cytometry analysis (reference value: 6.54 %)", "type": "functional"}}}
{"smiles": "C=C(C)[C@@H]1CC[C@]2(C(=O)OCCOC(=O)CCC(=O)OCc3cn(C)c4c3C(=O)C(OC)=CC4=O)CC[C@]3(C)[C@H](CC[C@@H]4[C@@]5(C)CC[C@H](O)[C@@](C)(CO)[C@@H]5CC[C@]43C)[C@@H]12", "values": [{"measurement": "Activity", "setting": "[1]", "value": 16.77, "unit": "%"}, {"measurement": "Activity", "setting": "[2]", "value": 100, "unit": "%"}, {"measurement": "Activity", "setting": "[3]", "value": 27.66, "unit": "%"}, {"measurement": "Activity", "setting": "[4]", "value": "Dde"}, {"measurement": "Activity", "setting": "[5]", "value": 66.47, "unit": "%"}, {"measurement": "IC50", "setting": "[6]", "value": 1.87, "unit": "µM"}, {"measurement": "remaining at 60 h", "setting": "[7]", "value": 80, "unit": "%"}, {"measurement": "Activity", "setting": "[8]", "value": "Dde"}, {"measurement": "Activity", "setting": "[9]", "value": 5.03, "unit": "%"}, {"measurement": "Activity", "setting": "[10]", "value": "Dde"}, {"measurement": "Activity", "setting": "[11]", "value": 20.54, "unit": "%"}, {"measurement": "Activity", "setting": "[12]", "value": "Non-Toxic"}, {"measurement": "IC50", "setting": "[13]", "value": 9.22, "unit": "µM"}, {"measurement": "Ratio IC50", "setting": "[14]", "value": 3.44}, {"measurement": "Activity", "setting": "[15]", "value": 2.16, "unit": "%"}, {"measurement": "selectivity ratio", "setting": "[16]", "value": 4.16}, {"measurement": "Activity", "setting": "[17]", "value": 79.07, "unit": "%"}, {"measurement": "Activity", "setting": "[18]", "value": 44.48, "unit": "%"}, {"measurement": "Activity", "setting": "[19]", "value": 56.44, "unit": "%"}, {"measurement": "IC50", "setting": "[20]", "value": 7.78, "unit": "µM"}, {"measurement": "Activity", "setting": "[21]", "value": 25.17, "unit": "%"}, {"measurement": "Activity", "setting": "[22]", "value": 22.1, "unit": "%"}, {"measurement": "Activity", "setting": "[23]", "value": 72.69, "unit": "%"}, {"measurement": "Activity", "setting": "[24]", "value": 55.89, "unit": "%"}, {"measurement": "Activity", "setting": "[25]", "value": 9.81, "unit": "%"}, {"measurement": "viability at 2 µM", "setting": "[26]", "value": 55.7, "unit": "%"}, {"measurement": "Activity", "setting": "[27]", "value": 12.54, "unit": "%"}, {"measurement": "Activity", "setting": "[28]", "value": "Dde"}, {"measurement": "Activity", "setting": "[29]", "value": 23.02, "unit": "%"}, {"measurement": "IC50", "setting": "[30]", "value": 2.36, "unit": "µM"}, {"measurement": "Activity", "setting": "[31]", "value": 22.49, "unit": "%"}, {"measurement": "IC50 at 72 h", "setting": "[32]", "value": 6.45, "unit": "µM"}, {"measurement": "Activity", "setting": "[33]", "value": 20.83, "unit": "%"}]}
